# In publication PMC10519361, “Shigella flexneri utilizes intestinal signals to control its virulence” (Gut Microbes, 2023):
# Target: T1, VirF (Shigella flexneri, UniProt P0A2T1)
# T1 construct: full ORF in pET15b, His-tagged (tag apparently kept)
# Assay: ELISA, fatty acid coated on plate, His-VirF detected by anti-His antibody
# Type: binding
# Settings: read-out: apparent Kd
# T1 sequence (P0A2T1 whole entry): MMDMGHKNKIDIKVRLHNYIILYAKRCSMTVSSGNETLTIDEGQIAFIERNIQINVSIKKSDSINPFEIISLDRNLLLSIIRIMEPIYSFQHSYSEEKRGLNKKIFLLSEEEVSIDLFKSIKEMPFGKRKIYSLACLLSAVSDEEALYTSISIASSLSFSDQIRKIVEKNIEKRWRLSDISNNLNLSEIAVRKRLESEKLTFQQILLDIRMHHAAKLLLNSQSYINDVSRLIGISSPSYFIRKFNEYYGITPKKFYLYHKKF
row,SMILES,Kd [µM]
1,CCCCCCCCCCCCCCCCC/C=C\C(=O)O [c2-EA],11.2
2,CCCCCCCCCCCCC/C=C\C(=O)O [c2-HDA],8.2
3,CCCCCCCC/C=C\CCCCCCCC(=O)O [oleic acid],14.3
4,CCCCCC/C=C\CCCCCCCC(=O)O [palmitoleic acid],12.9
5,CCCCCCCCCCCCC/C=C/C(=O)O [t2-HDA],9.5
